Assay results from US9408393B2, “Bismuth-thiols as antiseptics for agricultural, industrial and other uses” (Microbion Corporation, priority 2010, dated 2016).
Where two headings read alike, the source gives them in different places.

Tests used:
[1] = tested on: Escherichia coli; test: Single-point BisEDT-antibiotic combination FICI; format: cell-based
[2] = tested on: P. aeruginosa; test: Checkerboard broth microdilution MIC and FICI; format: cell-based, Pseudomonas aeruginosa; details: compound alone; for MIC: Pseudomonas aeruginosa, read-out: MIC (μg/mL) Alone
Method: The effects of combinations of microparticulate Bis-EDT and four Bis-EDT analogs prepared as described above, and other agents against representative strains of several Gram-negative pathogenic bacteria were tested. A modification of a common laboratory method was used to determine synergism (FICI≦0.5), enhancement (0.5<FICI≦1.0), antagonism (FICI>4.0) and indifference (1.0<FICI≦4.0) used fractional inhibitory concentrations (FICs) and FIC indices (FICI) (Eliopoulos G and R Moellering. 1991. Antimicrobial combinations. In Antibiotics in Laboratory Medicine, Third Edition, edited by V Lorian. Williams and Wilkins, Baltimore, Md., pp. 432-492; Odds, 2003 J. Antimicrob. Chemother. 52(1):1). The checkerboard technique was used to determine FIC indices and was employed in this study.
Stock solutions of all test articles were prepared at 40× the final target concentration in the appropriate solvent. […] The final drug concentrations in the FIC assay plates were set to bracket the MIC value of each agent for each test organism, unless the strain was totally resistant to the test agent. […] The test organisms were originally received from clinical sources, or from the American Type Culture Collection. Upon receipt, the isolates were streaked onto Tryptic Soy Agar II (TSA). Colonies were harvested from these plates and a cell suspension was prepared in an appropriate broth growth medium containing cryoprotectant. Aliquots were then frozen at −80° C. The frozen seeds of the organisms to be tested in a given assay were thawed, streaked for isolation onto TSA plates, and incubated at 35° C. All organisms were tested in Mueller Hinton II Broth (Becton Dickinson, Lot No. 9044411). The broth was prepared at 1.05× normal weight/volume to offset the 5% volume of the drugs in the final test plates.
Minimal Inhibitory Concentration (MIC) values were previously determined using the broth microdilution method for aerobic bacteria (Clinical and Laboratory Standards Institute (CLSI). Methods for Dilution Antimicrobial Susceptibility Tests for Bacteria That Grow Aerobically; Approved Standard—Eighth Edition. CLSI document M07-A8 [ISBN 1-56238-689-1]. Clinical and Laboratory Standards Institute, 940 West Valley Road, Suite 1400, Wayne, Pa. 19087-1898 USA, 2009.).
FIC values were determined using a broth microdilution method previously described (Sweeney et al., 2003 Antimicrob. Agents Chemother. 47(6):1902-1906). To prepare the test plates, automated liquid handlers (Multidrop 384, Labsystems, Helsinki, Finland; Biomek 2000 and Multimek 96, Beckman Coulter, Fullerton Calif.) were used to conduct serial dilutions and liquid transfers.
The appropriate wells of standard 96-well microdilution plates (Falcon 3918) were filled with 150 μL of the appropriate solvent in columns 2-12 using the Multidrop 384. Three hundred microliters of each secondary test drug was added to each well in Column 1 of the plates. These plates were used to prepare the drug “mother plates” which provided the serial drug dilutions for the drug combination plates. The Biomek 2000 was used to transfer 150 μL of each secondary drug solution (40×) from the wells in Column 1 of the mother plate and to make eleven 2-fold serial dilutions. Mother plates of Bis-EDT (and analogs) were serial diluted top to bottom by hand, using a multichannel pipette. Two mother plates, one for each secondary drug and one for Bis-EDT (or analogs), were combined to form a “checkerboard” pattern by transfer of equal volumes (using a multi-channel pipette) to the drug combination plate. Row H and Column 12 each contained serial dilutions of one of the agents alone for determination of the MIC.
The “daughter plates” were loaded with 180 μL of test medium using the Multidrop 384. Then, the Multimek 96 was used to transfer 10 μL of drug solution from each well of the drug combination mother plate to each corresponding well of the daughter plate in a single step.

[3] = tested on: Burkholderia cepacia; test: Single-point BisEDT-antibiotic combination FICI; format: cell-based; details: Bcep 1756
[4] = tested on: Klebsiella pneumoniae; test: Single-point BisEDT-antibiotic combination FICI; format: cell-based; details: KP 1231
[5] = tested on: Acinetobacter baumanii; test: Single-point BisEDT-antibiotic combination FICI; format: cell-based; details: Abau 2594
[6] = tested on: MRSA clinical isolates; details: cited from earlier work
[7] = tested on: lawn of MRSA (Methicillin-resistant S. aureus); test: Antibiotic-soaked discs on bacterial lawn with and without BisEDT; format: cell-based, Staphylococcus aureus; details: antibiotic discs combined with BisEDT 0.05 μg/ml
Method: FIGS. 4A and 4B show the subinhibitory BisEDT reversing antibiotic-resistance to several antibiotics. Effects of antibiotics with and without BisEDT (0.05 μg/ml) on a lawn of MRSA (Methicillin-resistant S. aureus) is shown. […] [GM=gentamicin, CZ=cefazolin, FEP=cefepime, IPM=imipenim, SAM=ampicillin/sulbactam, LVX=levofloxacin.

[8] = tested on: MRSA clinical isolates; test: Broth dilution MIC in BHIG/X medium with subMIC BisEDT; format: cell-based, Staphylococcus aureus; details: for MIC: Staphylococcus aureus, MRSA, 12 MRSA clinical isolates, BHIG/X, mean ± SD, read-out: MIC
Method: (§1) Broth dilution antimicrobial susceptibility studies were performed against 12 MRSA strains using several antibiotics combined with subMIC levels of BisEDT (Table 18). Both the biofilm-prevention concentration (BPC) and the minimum inhibitory concentration (MIC) were determined in a special biofilm culture medium (BHIG/X). […] These strains were already sensitive to vancomycin, but were made considerably moreso in the presence of subMIC BisEDT.
In this particular study, the data indicated synergy between BisEDT and cefepime (FIC<0.5), with many of the isolates at the breakpoint for sensitivity.

[9] = tested on: MRSA clinical isolates biofilm; test: Biofilm-prevention concentration (BPC) in BHIG/X medium with subMIC BisEDT; format: cell-based, Staphylococcus aureus; details: 12 MRSA clinical isolates, mean ± SD
Method: as §1

[10] = tested on: Bukholderia multivorans; test: Single-point BisEDT-antibiotic combination FICI; format: cell-based; details: Bmult 5665
[11] = tested on: Pseudomonas aeruginosa; test: Single-point BisEDT-antibiotic combination FICI; format: cell-based; details: PA 1380

Compound: CO/N=C(\C(=O)N[C@@H]1C(=O)N2C(C(=O)[O-])=C(C[N+]3(C)CCCC3)CS[C@H]12)c1csc(N)n1 [Cefepime]
- FICI, single-point BisEDT-antibiotic combination ([1]; EC 102): 0.87
- FICI, single-point BisEDT-antibiotic combination ([1]; EC 2232): 0.96
- MIC (μg/mL) Alone ([2]; P. aeruginosa 103): 1 µg/mL
- MIC (μg/mL) Alone ([2]; P. aeruginosa 1479): 8 µg/mL
- MIC (μg/mL) Alone ([2]; P. aeruginosa 2566): 16 µg/mL
- MIC ([2]; P. aeruginosa 103): 2 µg/mL
- MIC ([2]; P. aeruginosa 1381): 32 µg/mL
- MIC ([2]; P. aeruginosa 1384): 2 µg/mL
- MIC ([2]; P. aeruginosa 1474): 2 µg/mL
- MIC ([2]; P. aeruginosa 1479): 4 µg/mL
- MIC ([2]; P. aeruginosa 2566): 8 µg/mL
- MIC ([2]; P. aeruginosa 2568): 2 µg/mL
- FICI, single-point BisEDT-antibiotic combination [3]: 1.34
- FICI, single-point BisEDT-antibiotic combination [4]: 1.11
- FICI, single-point BisEDT-antibiotic combination [5]: 0.71
- MIC Standards, R (resistance) ([6]; Standard MIC breakpoint for resistance): ≧32 μg/ml
- MIC Standards, S (antibiotic sensitivity) ([6]; Standard MIC breakpoint for sensitivity): ≦8 μg/ml
- Antibiotic action on MRSA lawn with subMIC BisEDT [7]: enhanced antibiotic action
- Isolates in which BisEDT significantly enhanced inhibitory activity of cefepime ([8]; BisEDT at 0.1 μg/ml, 12 cefepime-resistant MRSA): 11 of 12
- MIC ([8]; BisEDT 0 μg/mL): 45 ± 32 µg/mL
- MIC ([8]; BisEDT 0.025 μg/mL): 32 ± 28 µg/mL
- MIC ([8]; BisEDT 0.05 μg/mL): 37 ± 24 µg/mL
- MIC ([8]; BisEDT 0.1 μg/mL): 9.3 ± 6.1 µg/mL
- FIC, BisEDT and cefepime ([8]; cefepime-resistant MRSA isolates): < 0.5
- BPC ([9]; BisEDT 0 μg/mL): 24 ± 37 µg/mL
- BPC ([9]; BisEDT 0.025 μg/mL): 27 ± 28 µg/mL
- BPC ([9]; BisEDT 0.05 μg/mL): 18 ± 16 µg/mL
- BPC ([9]; BisEDT 0.1 μg/mL): 5.0 ± 7.3 µg/mL
- FICI, single-point BisEDT-antibiotic combination [10]: 0.96
- FICI, single-point BisEDT-antibiotic combination [11]: 0.62
